Test results taken from ChEMBL document CHEMBL5230160, “Chemotherapeutics for Toxoplasma gondii: Molecular Biotargets, Binding Modes, and Structure-Activity Relationship Investigations” (J Med Chem, 2021).
Blank lines part the entries; values can stand above or below the compound they belong to.

Legend:
Toxoplasma gondii [1] = test: Antiparasitic activity against Toxoplasma gondii tachyzoites infected in hTERT cells by fluorescence plate reader assay; format: functional, organism-based; settings: read-out: ED50 (the source's name)
[2] = Inhibition of Toxoplasma gondii FPPS incubated for 30 mins by scintillation counting analysis
Toxoplasma gondii [3] = test: Antiparasitic activity against Toxoplasma gondii infected in HFF cells by fluorescence based analysis; format: functional, organism-based
[4] = Inhibition of Toxoplasma gondii recombinant ENR in presence of NADH by absorbance based analysis
Toxoplasma gondii [5] = test: Antiparasitic activity against Toxoplasma gondii tachyzoites infected in mouse assessed as survival at 10 mg/kg relative to control; format: functional
Toxoplasma gondii [6] = test: Antiparasitic activity against Toxoplasma gondii tachyzoites; format: functional, organism-based; settings: Toxoplasma gondii; read-out: IC50
Toxoplasma gondii [7] = test: Antiparasitic activity against Toxoplasma gondii tachyzoites infected in human HeLa cells measured after 24 hrs by MTT assay; format: functional, organism-based
[8] = Selectivity index, ratio of IC50 for cytotoxicity against human HeLa cells to IC50 for antiparasitic activity against Toxoplasma gondii tachyzoites infected in human HeLa cells; format: toxicity, cell-based; settings: for selectivity ratio: read-out: Ratio IC50
HeLa = test: Cytotoxicity against human HeLa cells assessed as cell growth inhibition measured after 24 hrs by MTT assay; format: functional, cell-based
[9] = Selectivity ratio of IC50 for inhibition of Toxoplasma gondii FPPS to IC50 for antiparasitic activity against Toxoplasma gondii tachyzoites infected in hTERT cells; format: toxicity, cell-based; settings: human
[10] = Toxicity in BALB/c mouse infected with Toxoplasma gondii RH tachyzoites assessed as mortality […]; settings: in vivo
Toxoplasma gondii [11] = test: Antiparasitic activity against Toxoplasma gondii; format: functional, organism-based
[12] = Therapeutic index, ratio of IC50 for antiparasitic activity against Toxoplasma gondii to IC50 for antimalarial activity against blood stage Plasmodium falciparum Dd2; format: toxicity
Plasmodium falciparum = test: Antimalarial activity against blood stage Plasmodium falciparum Dd2 assessed as parasite growth inhibition; format: functional; settings: read-out: ED50 (the source's name)
Toxoplasma gondii [13] = test: Antiparasitic activity against Toxoplasma gondii infected in HFF cells incubated for 3 days by absorbance based analysis; format: functional, organism-based; settings: 72 h
Toxoplasma gondii [14] = test: Antiparasitic activity against Toxoplasma gondii infected in HFF cells assessed as parasitic growth inhibition incubated for 24 hrs by MTS/PMS assay; format: functional, organism-based
[15] = Inhibition of Toxoplasma gondii DHFR
[16] = Selectivity index, ratio of CC50 for cytotoxicity against HFF cells to IC50 for antiparasitic activity against Toxoplasma gondii infected in HFF cells; format: toxicity, cell-based; settings: human; read-out: Ratio CC50/IC50
[17] = Inhibition of Toxoplasma gondii recombinant PNP
[18] = target: T1, Purine nucleoside phosphorylase (Homo sapiens, UniProt P00491); test: Inhibition of human recombinant PNP
T1 sequence (P00491 whole entry): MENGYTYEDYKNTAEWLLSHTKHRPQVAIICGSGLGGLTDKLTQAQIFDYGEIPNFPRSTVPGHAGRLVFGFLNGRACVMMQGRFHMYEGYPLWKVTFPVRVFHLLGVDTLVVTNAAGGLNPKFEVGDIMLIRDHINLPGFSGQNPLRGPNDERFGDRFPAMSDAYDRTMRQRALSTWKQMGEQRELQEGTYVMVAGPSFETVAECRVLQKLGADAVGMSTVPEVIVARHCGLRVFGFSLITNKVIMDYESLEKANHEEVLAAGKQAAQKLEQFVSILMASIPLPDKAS

Compound: CCCCCS(=O)(=O)CC(P(=O)(O)O)P(=O)(O)O
EC50 (Toxoplasma gondii [1]): > 10000 nM | IC50 [2]: > 10000 nM

Compound: Oc1ccc(Oc2ccc(Cl)cc2O)c(Cl)c1
IC50 (Toxoplasma gondii [3]): 3100 nM | IC50 [4]: 3 nM

Compound: N#CC(c1ccc(Cl)cc1)c1c(Cl)cc(-n2ncc(=O)[nH]c2=O)cc1Cl (stereo unspecified) [DICLAZURIL]
survival at 10 mg/kg (Toxoplasma gondii [5]): 100% | IC50 (Toxoplasma gondii [6]): 6 nM

Compound: SPIRAMYCIN
IC50 (Toxoplasma gondii [7]; hela): 262000 nM | Ratio IC50 [8]: 0.72 | IC50 (HeLa; hela): 189000 nM

Compound: C=C(C)CNCC(P(=O)(O)O)P(=O)(O)O
Ratio IC50 [9]: 36

Compound: N[C@@H]1[C@H]2CN(c3nc4c(cc3F)c(=O)c(C(=O)O)cn4-c3ccc(F)cc3F)C[C@@H]12 [TROVAFLOXACIN]
survival at 10 mg/kg (Toxoplasma gondii [5]): 90%

Compound: COc1cc(C2C(C(=O)OCc3cccnc3)=C(C)NC3=C2C(=O)CCC3)cc(OC)c1OC (stereo unspecified)
mortality [10]: 63%

Compound: Oc1cc(Cl)ccc1Oc1ccc(NCc2ccccc2)cc1Cl
IC50 (Toxoplasma gondii [3]): 200 nM | IC50 [4]: 13 nM

Compound: CCCCCCCCSCC(P(=O)(O)O)P(=O)(O)O
IC50 [2]: 24 nM | Ratio IC50 [9]: > 1000

Compound: CCCCCCCCCCCCc1cc(=O)c2ccccc2n1O
IC50 (Toxoplasma gondii [11]): 0.16 nM

Compound: CCCCCCCc1c(C)[nH]c2cc(F)cc(F)c2c1=O
Ratio IC50 [12]: > 83 | EC50 (Plasmodium falciparum): 0.5 nM | EC50 (Toxoplasma gondii [13]): 6000 nM

Compound: CCc1nc(N)nc(N)c1-c1ccc(Cl)cc1 [PYRIMETHAMINE]
IC50 (Toxoplasma gondii [14]): 3620 nM | IC50 (Toxoplasma gondii [6]): 453 nM

Compound: C[C@H]1[C@H](C)CC[C@]2(C(=O)O)CC[C@]3(C)C(=CC[C@@H]4[C@@]5(C)C/C(=C/c6cn(-c7ccccc7Cl)nn6)C(=O)C(C)(C)[C@H]5CC[C@]43C)[C@H]12
IC50 (Toxoplasma gondii [7]; Toxoplasma gondii, HeLa, 24 h): 240000 nM | selectivity ratio [8]: 1.95 | IC50 (HeLa; Homo sapiens, HeLa, 24 h): 468000 nM

Compound: COc1ccc(OC)c(Cc2cnc3nc(N)nc(N)c3c2C)c1 [PIRITREXIM]
IC50 [15]: 17 nM

Compound: CC(C)(C)[C@H]1CC[C@H](CC2=C(O)C(=O)c3ccccc3C2=O)CC1 [BUPARVAQUONE]
IC50 (Toxoplasma gondii [14]): 100 nM | selectivity ratio [16]: 86.8

Compound: CCCc1ccc(Oc2ccc(C#N)cc2Cl)c(O)c1
IC50 (Toxoplasma gondii [3]): 6000 nM | IC50 [4]: < 20 nM

Compound: O=c1[nH]cnc2c([C@@H]3N[C@H](CO)[C@@H](O)[C@H]3O)c[nH]c12 [FORODESINE]
IC50 [17]: 0.37 nM

Compound: Nc1ncnc2c1ncn2Cc1c(F)cccc1Cl [ARPRINOCID]
survival at 10 mg/kg (Toxoplasma gondii [5]): 100% | IC50 (Toxoplasma gondii [6]): 7000 nM

Compound: COc1ccc(C2C(C(=O)OCCCc3ccccn3)=C(C)NC3=C2C(=O)CCC3)cc1 (stereo unspecified)
mortality [10]: 75%

Compound: COc1ccc(OC)c(CNc2cnc3nc(N)nc(N)c3c2)c1
IC50 [15]: 28 nM

IC50 [18]: 0.9 nM
Compound: O=c1[nH]cnc2c([C@H]3C[C@H](O)[C@@H](CO)N3)c[nH]c12
IC50 [17]: 190 nM

Compound: CCCc1ccc(Oc2ccc(N)cc2Cl)c(O)c1
IC50 (Toxoplasma gondii [3]): 6000 nM | IC50 [4]: < 20 nM

Compound: CC(=O)O[C@H]1C[C@@]2(C)[C@@H](C[C@@H](O)[C@H]3[C@@]4(C)CC[C@@H](O)[C@@H](C)[C@@H]4CC[C@@]32C)/C1=C(\CCC=C(C)C)C(=O)O [FUSIDIC ACID]
survival at 10 mg/kg (Toxoplasma gondii [5]): 90% | IC50 (Toxoplasma gondii [6]): 7000 nM

Compound: COc1cc(-n2cc(/C=C3/C[C@@]4(C)[C@H](CC[C@]5(C)[C@@H]4CC=C4[C@@H]6[C@@H](C)[C@H](C)CC[C@]6(C(=O)O)CC[C@]45C)C(C)(C)C3=O)nn2)cc(OC)c1OC
IC50 (Toxoplasma gondii [7]; Toxoplasma gondii, HeLa, 24 h): 301000 nM | selectivity ratio [8]: 1.17 | IC50 (HeLa; Homo sapiens, HeLa, 24 h): 354000 nM

Compound: CC(C)=CCC/C(C)=C/CSCC(P(=O)(O)O)P(=O)(O)O
EC50 (Toxoplasma gondii [1]): > 10000 nM

IC50 [18]: 12 nM
Compound: C[C@H]1N[C@@H](c2c[nH]c3c(=O)[nH]cnc23)[C@H](O)[C@@H]1O
IC50 [17]: 11 nM

Compound: S=c1[nH]nc(-c2cccs2)[nH]1
IC50 [17]: 194000 nM

Compound: CCCCCCCCCCCc1c(C)[nH]c2cc(F)cc(F)c2c1=O
Ratio IC50 [12]: > 83 | EC50 (Plasmodium falciparum): 2.7 nM | EC50 (Toxoplasma gondii [13]): 3000 nM
